The results in this text go back to patent US20240043797A1, “METHOD FOR MASS PRODUCTION OF HIGHLY PURE, STEM CELL-DERIVED EXTRACELLULAR VESICLE BY USING PEPTIDE” (INDUSTRY-ACADEMIC COOPERATION FOUNDATION, CHOSUN UNIVERSITY, priority 2020, published 2024).

What all share (type): cell-based
One data set has as its system mesenchymal stem cells. Briefly: Inhibitor assay: EV production after pretreatment with BAPTA-AM or ALLM. To be noted: TS-eEV production; cells pretreated with 50 μM BAPTA-AM 1 hour or 10 μM ALLM 18 hours. As for the experimental part: The cells were pretreated with 50 μM BAPTA-AM (calcium-selective chelator) for 1 hour and with 10 μM ALLM (calpain inhibitor) for 18 hours. Comparison was made of EV production outputs among the method used, and the results are shown in FIGS. 14a and 14b and Table 15.

Data set [1] in a line: Viability of umbilical cord MSCs against eMTD peptide, cell counting with trypan blue (TB assay). As for the experimental part:
To measure the number of cells, umbilical cord-derived mesenchymal stem cells were seeded at a density of 2.5×10^4 cells/well into 12-well plates (30012, SPL) and incubated for 24 hours. The eMTD peptide in the sucrose buffer of Table 2 was applied at a final concentration of 0, 0.5, 1.0, 3.0, 5.0, 10.0, or 20.0 μM to the cells. After 15 minutes, the cells were counted using a trypan blue solution. Separately, umbilical cord-derived mesenchymal stem cells were seeded at a density of 2.5×10^4 cells/well into 12-well plates (30012, SPL) and incubated for 24 hours. The cells were treated with the eMTD peptide in the sucrose buffer of Table 2 for various periods of time (0, 5, 10, 15, 20, 25, and 30 minutes). After each period, the cells were counted using a trypan blue solution, and the results are depicted in FIG. 2 and summarized in Tables 5 and 6.

A short description of data set [2]: Viability of umbilical cord MSCs against eMTD peptide, absorbance analysis (ez-cytox, 450 nm; 'MTT assay'). On the procedure:
Mesenchymal stem cells derived from the umbilical cord (Wharton's jelly-derived MSCs, WJ-MSCs) were assayed for viability by treatment with the eMTD peptide at predetermined concentrations for predetermined periods of time. Tests were conducted with predetermined concentrations of the eMTD peptide. In this regard, umbilical cord-derived mesenchymal stem cells were seeded at a density of 2×10^4 cells/well into 24-well plates (30024, SPL). After 24 hours of incubation, the eMTD peptide in a sucrose buffer was applied at a final concentration of 0, 0.5, 1, 3, 5, 10, or 20 μM to the cells. The sucrose buffer contained glucose, sucrose, and 3-(N-morpholino)propanesulfonic acid [MOPS] at the respective concentrations shown in Table 2. After 15 minutes, the cells were incubated with ez-cytox (EZ-3000, DOGEN) for 30 to 60 minutes. Then, absorbance was read at 450 nm using a Bio-RAD x-Mark™ spectrophotometer (Bio-Rad Laboratories, USA). In addition, treatment with the eMTD peptide was conducted over various times. In this regard, umbilical cord-derived mesenchymal stem cells were seeded at a density of 2×10^4 cells/well into 24-well plates and incubated for 24 hours. Thereafter, the cells were treated with 1 μM of the eMTD peptide in the sucrose buffer for various periods of time (0, 5, 10, 15, 20, 25, or 30 minutes). After 15 minutes of treatment, the cells were incubated for 30 to 60 minutes with ez-cytox (EZ-3000, DOGEN). Absorbance was read at 450 nm using the Bio-RAD x-Mark™ spectrophotometer (Bio-Rad Laboratories, USA).
(Tetrazolium assays rely on reduction of a dye to a coloured formazan, in cell work by metabolically active cells.)

Ends that are not written are not given here. Peptide text beside a SMILES is read from it.

One may read the viability as the share of living cells, or the viability signal relative to a control.

For the molecule `CC(=O)OCOC(=O)CN(CC(=O)OCOC(C)=O)c1ccccc1OCCOc1ccccc1N(CC(=O)OCOC(C)=O)CC(=O)OCOC(C)=O` [BAPTA-AM], the “EV production (particle number/cell)” value in the data set on mesenchymal stem cells is recorded as 7.34 × 10^3 ± 9.08 × 10^2 particle number/cell.
On the same count and under the same terms, the value for `CSCC[C@@H](C=O)NC(=O)[C@H](CC(C)C)NC(=O)[C@H](CC(C)C)NC(C)=O` [ALLM] (Ac-Leu-Leu-Met-aldehyde) was 8.25 × 10^3 ± 9.96 × 10^2 particle number/cell.
Turning to KLNFRQKLLNLISKLFCSGT [eMTD], the viability at 15 minutes, 10 μM was 0% in data set [1] and 2.9% in data set [2] (MTT assay, eMTD 10.0 μM, 15 minutes, read-out: Cell viability (%)). For the same molecule, the viability at 15 minutes, 0.5 μM in data set [1] (umbilical cord-derived mesenchymal stem cells, TB assay, eMTD 0.5 μM, 15 minutes) turned out to be 66.7%; in data set [2] (MTT assay, eMTD 0.5 μM, 15 minutes, read-out: Cell viability (%)), 53.9%. In addition, the viability at 15 minutes, 1 μM in data set [1] (umbilical cord-derived mesenchymal stem cells, TB assay, eMTD 1.0 μM, 15 minutes) was 66.3%; in data set [2] (MTT assay, eMTD 1.0 μM, 15 minutes, read-out: Cell viability (%)), 57.4%; in data set [2] (cell viability), about 50%. Further, the viability at 15 minutes, 3 μM in data set [1] (umbilical cord-derived mesenchymal stem cells, TB assay, eMTD 3.0 μM, 15 minutes) is 21.9%; in data set [2] (MTT assay, eMTD 3.0 μM, 15 minutes, read-out: Cell viability (%)) it was 13.6%. Further, the viability at 15 minutes, 5 μM in data set [1] (umbilical cord-derived mesenchymal stem cells, TB assay, eMTD 5.0 μM, 15 minutes) came to 11.2%; in data set [2] (MTT assay, eMTD 5.0 μM, 15 minutes, read-out: Cell viability (%)), 5.8%. Also, the viability at 15 minutes, 20 μM is 2.1% in data set [1] (umbilical cord-derived mesenchymal stem cells, TB assay, eMTD 20.0 μM, 15 minutes) and 4.1% in data set [2] (MTT assay, eMTD 20.0 μM, 15 minutes, read-out: Cell viability (%)). This molecule displayed a viability at 5 min in data set [1] (umbilical cord-derived mesenchymal stem cells, TB assay, time 5 min) of 40%. This molecule showed a viability at 10 min in data set [1] (umbilical cord-derived mesenchymal stem cells, TB assay, time 10 min) of 29.7%. This molecule yielded a viability at 15 min in data set [1] (umbilical cord-derived mesenchymal stem cells, TB assay, time 15 min) of 38.5%. In data set [1] (umbilical cord-derived mesenchymal stem cells, TB assay, time 20 min), this molecule showed a viability at 20 min of 35.9%. The viability at 25 min in data set [1] (umbilical cord-derived mesenchymal stem cells, TB assay, time 25 min) came out at 14.6%. Further, the viability at 30 min in data set [1] (umbilical cord-derived mesenchymal stem cells, TB assay, time 30 min) came to 15.6%. Also, the viability at 5 min, 1 μM in data set [2] (MTT assay, 1 μM eMTD, time 5 min, read-out: Cell viability (%)) stood at 52.7%. The viability at 10 min, 1 μM in data set [2] (MTT assay, 1 μM eMTD, time 10 min, read-out: Cell viability (%)) came to 41.8%. Moreover, the viability at 15 min, 1 μM in data set [2] (MTT assay, 1 μM eMTD, time 15 min, read-out: Cell viability (%)) is 37%. Also, the viability at 20 min, 1 μM in data set [2] (MTT assay, 1 μM eMTD, time 20 min, read-out: Cell viability (%)) turned out to be 29.4%. Also, the viability at 25 min, 1 μM in data set [2] (MTT assay, 1 μM eMTD, time 25 min, read-out: Cell viability (%)) amounted to 18.5%. Besides, the viability at 30 min, 1 μM in data set [2] (MTT assay, 1 μM eMTD, time 30 min, read-out: Cell viability (%)) was found to be 17.8%.
